Paper PMC5224880, “Discovery and Molecular Basis of a Diverse Set of Polycomb Repressive Complex 2 Inhibitors Recognition by EED” (PLoS ONE, 2017)
pIC50: −log10 of the molar value.

Assays:
His-EED (residues 1–441) = target: T1, His-EED (residues 1–441) (Homo sapiens, UniProt O75530); assay: biochemical; details: 30 nM His-EED, 15 nM biotin-H3K27me3 (19–33) peptide; read-out: IC50, EED-H3K27me3 AlphaScreen competition binding assay
T1 construct: 30 nM His-EED (residues 1–441) protein
Protocol: The data were then fit to a dose response equation using the program Helios (Novartis) to determine the IC50 values.
Each compound was counterscreened to determine if it interfered with the AlphaScreen beads. Compounds were diluted as described in the preceding section, and the assay was performed by adding 12 μL of 10 nM Biotin-miniPEG-His6 peptide in the above buffer and incubated for 20 min at room temperature prior to addition of the acceptor and donor beads. The plates were then incubated for 1 h at room temperature in the dark before being read on the EnVision system (Perkin Elmer).
In addition to the enzymatic assay, we also developed a binding assay to measure the interaction between His-tagged recombinant EED protein and a biotinylated H3K27me3 peptide using the Amplified Luminescence Proximity Homogenous Assay Screen (AlphaScreen) [33, 34]. Binding of Biotin-H3K27me3 peptide to His-EED protein brings the streptavidin-coated donor beads and anti-His antibody coated acceptor beads into close proximity and thus a luminescent signal is produced. Disruption of EED-H3K27me3 interaction by H3K27me3 pocket binders will result in the signal reduction.

recombinant EED = recombinant EED (Homo sapiens, UniProt O75530); assay: ITC binding analysis; details: 25°C
Sequence of recombinant EED (O75530 76-441 limits assumed): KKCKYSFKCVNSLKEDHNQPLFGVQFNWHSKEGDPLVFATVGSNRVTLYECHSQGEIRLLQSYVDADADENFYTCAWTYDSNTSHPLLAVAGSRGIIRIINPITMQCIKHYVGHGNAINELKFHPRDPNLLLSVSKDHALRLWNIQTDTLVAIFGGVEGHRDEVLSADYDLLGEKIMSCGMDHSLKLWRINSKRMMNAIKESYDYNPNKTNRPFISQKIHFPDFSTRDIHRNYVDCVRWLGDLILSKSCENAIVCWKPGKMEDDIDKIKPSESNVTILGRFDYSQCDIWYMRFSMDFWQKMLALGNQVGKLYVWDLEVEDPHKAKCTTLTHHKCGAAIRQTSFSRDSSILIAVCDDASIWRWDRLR
Protocol: ITC experiments were performed on an Auto ITC200 (Microcal) at 25°C. The ITC sample cell was filled with 10 μM PRC2 in titration buffer containing 25 mM HEPES pH8.0, 150 mM NaCl, and 1% DMSO. 40 μL of 100 μM compounds in the same titration buffer was loaded in the ITC syringe. 19 injections, each of 2 μL, was injected into the ITC cell at 150 s intervals. Binding constant (K) and binding enthalpy (ΔH) determinations were obtained from the fit to the experimental data using a one-site model.
Both isothermal calorimetry (ITC) and surface plasmon resonance (SPR) assay were established for this purpose.

T1 sequence (O75530 whole entry, the tested form may be a part): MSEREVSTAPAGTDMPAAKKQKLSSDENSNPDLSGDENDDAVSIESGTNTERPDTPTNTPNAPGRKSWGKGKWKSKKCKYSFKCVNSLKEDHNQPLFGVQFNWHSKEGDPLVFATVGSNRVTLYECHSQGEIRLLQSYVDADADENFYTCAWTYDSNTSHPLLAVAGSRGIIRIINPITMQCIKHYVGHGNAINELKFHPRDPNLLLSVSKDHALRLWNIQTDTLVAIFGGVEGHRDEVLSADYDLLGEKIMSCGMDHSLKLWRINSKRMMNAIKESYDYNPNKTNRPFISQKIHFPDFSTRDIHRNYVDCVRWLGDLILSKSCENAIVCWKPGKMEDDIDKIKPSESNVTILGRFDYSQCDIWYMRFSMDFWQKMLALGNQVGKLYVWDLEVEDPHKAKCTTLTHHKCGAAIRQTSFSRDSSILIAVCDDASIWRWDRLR

Structure (SMILES) | pIC50 (His-EED (residues 1–441)) | enthalpy change (ITC) (recombinant EED) [kcal/mol] | entropy change (ITC) (recombinant EED) [cal/mol/deg] | stoichiometry of binding N (ITC) (recombinant EED)
N#Cc1c2c(c3nncn3c1NCc1ccco1)CN(Cc1ccccc1)CC2 [EED162] | 6.49 | – | – | –
COc1cccc(CC2CC3Cc4c(cccc4OC)CC3N(C)C2)c1 (stereo not shown) [EED210] | – | -20.14 ± 5.29 | -46.5 | 0.78
